Assays:
[1] = biological target: human purified recombinant IRAK4 (His-TEV-IRAK4 (1-460)) (Homo sapiens (Human), UniProt Q9NWZ3); assay: IRAK4 enzymatic assay (ADP-Glo luminescence); assay type: biochemical; conditions: ATP 2 μM, STK1-biotin peptide 300 nM, 2 h at RT
Description: IRAK4 is a human purified recombinant enzyme (His-TEV-IRAK4 (1-460)).
In this assay, IRAK4 hydrolyses ATP, autophosphorylates and phosphorylates a Serine/Threonine generic peptidic substrate (STK: 61ST1BLC from CisBio International). Measurement of IRAK-4 inhibition is performed in 384-well format based on a luminescence assay (ADP-Glo™ Kinase Assay from Promega). Purified human recombinant IRAK4 (0.3 μg/ml) and serial diluted compounds in DMSO (range of concentration from 10 μM to 0.5 nM) or controls (1% DMSO) are incubated for 15 minutes at RT in assay buffer containing 50 mM Hepes pH 7.0, Fatty acid-free BSA 0.1%, Dithiothreitol (DTT) 2 mM, MgCl2 10 mM, EGTA 0.5 mM, Triton X-100 0.01%, MnCl2 5 mM. The kinase reaction is then initiated by the addition of ATP (2 μM) and the peptidic substrate STK1-biotin peptide (300 nM). After 2 hours of incubation at RT, the reaction is stopped and the unconsumed ATP depleted by the addition of ADP-Glo™ Reagent according to supplier instructions. After 40 minutes of incubation at RT, the Kinase Detection Reagent is then added to the assay plate according to supplier instructions. After 20 minutes of incubation at RT, the luminescence signal is measured with a plate-reading luminometer (PerkinElmer Envision or equivalent reader).

[2] = biological target: human purified recombinant IRAK1 (His-TEV-IRAK1 (194-712)) (Homo sapiens (Human), UniProt P51617); assay: IRAK1 enzymatic assay (ADP-Glo luminescence); assay type: biochemical; conditions: ATP 1 μM, 2 h at RT
Chain of human purified recombinant IRAK1 (His-TEV-IRAK1 (194-712)) (P51617 194-712): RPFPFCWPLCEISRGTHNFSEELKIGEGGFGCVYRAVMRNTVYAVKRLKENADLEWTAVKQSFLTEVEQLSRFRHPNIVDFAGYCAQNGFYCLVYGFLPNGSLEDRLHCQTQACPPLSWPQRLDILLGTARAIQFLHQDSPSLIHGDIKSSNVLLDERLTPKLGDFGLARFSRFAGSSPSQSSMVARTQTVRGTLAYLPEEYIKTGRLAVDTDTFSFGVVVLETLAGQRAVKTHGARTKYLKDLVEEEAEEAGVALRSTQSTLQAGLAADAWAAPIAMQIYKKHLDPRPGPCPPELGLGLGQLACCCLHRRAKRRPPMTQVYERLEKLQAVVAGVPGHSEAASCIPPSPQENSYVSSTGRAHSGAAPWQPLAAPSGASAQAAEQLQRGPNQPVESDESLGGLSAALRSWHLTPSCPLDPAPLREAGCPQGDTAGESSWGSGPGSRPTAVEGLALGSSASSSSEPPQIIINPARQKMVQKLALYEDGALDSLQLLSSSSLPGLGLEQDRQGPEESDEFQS
Description: IRAK1 is a human purified recombinant enzyme (His-TEV-IRAK1 (194-712))
In this assay, IRAK1 hydrolyses ATP and autophosphorylates. Measurement of IRAK-1 inhibition is performed in 384-well format based on luminescence assay (ADP-Glo™ Kinase Assay from Promega). Purified human recombinant IRAK1 (0.3 μg/ml) and serial diluted compounds in DMSO (range of concentration from 10 μM to 0.5 nM) or controls (1% DMSO) are incubated for 15 minutes at RT in assay buffer containing 50 mM Hepes pH 7.0, Fatty acid-free BSA 0.1%, Dithiothreitol (DTT) 2 mM, MgCl2 10 mM, EGTA 0.5 mM, Triton X-100 0.01%. The kinase reaction is then initiated by the addition of ATP at a concentration of 1 μM. After 2 hours of incubation at RT, the reaction is stopped and the unconsumed ATP depleted by the addition of ADP-Glo™ Reagent according to supplier instructions. After 40 minutes of incubation at RT, the Kinase Detection Reagent is then added to the assay plate according to supplier instructions. After 20 minutes of incubation at RT, the luminescence signal is measured with a luminometer (PerkinElmer Envision or equivalent reader).

Chain of human purified recombinant IRAK4 (His-TEV-IRAK4 (1-460)) (Q9NWZ3 whole entry): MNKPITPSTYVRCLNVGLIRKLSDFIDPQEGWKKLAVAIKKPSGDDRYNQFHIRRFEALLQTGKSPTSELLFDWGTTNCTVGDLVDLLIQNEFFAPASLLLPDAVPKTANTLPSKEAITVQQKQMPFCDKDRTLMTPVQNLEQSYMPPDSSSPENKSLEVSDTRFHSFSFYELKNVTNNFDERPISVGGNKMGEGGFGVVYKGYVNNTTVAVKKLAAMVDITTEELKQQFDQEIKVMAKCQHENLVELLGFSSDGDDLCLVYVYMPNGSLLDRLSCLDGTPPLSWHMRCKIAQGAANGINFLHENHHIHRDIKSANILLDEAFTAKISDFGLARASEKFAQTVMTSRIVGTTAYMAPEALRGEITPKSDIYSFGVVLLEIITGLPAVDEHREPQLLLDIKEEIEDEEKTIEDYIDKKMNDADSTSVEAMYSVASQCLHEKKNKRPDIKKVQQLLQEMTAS

| IC50 [1] [nM] | IC50 [2] [nM] | SMILES |
| --- | --- | --- |
| < 100 | 100 to 1000 | Cn1cc2c(n1)C(=O)NCCCOc1ccc(=O)n(n1)Cc1cccc(c1)C(=O)N2 [Compound 1, 12-methyl-20-oxa-1,9,12,13,16,25-hexaazatetracyclo[19.3.1.1^3,70^10,14]hexacosa-3,5,7(26),10,13,21(25),22-heptaene-8,15,24-trione] |
| < 100 | < 100 | Cn1cc2c(n1)C(=O)NCCn1cc(cn1)-c1ccc(=O)n(n1)Cc1cccc(c1)C(=O)N2 [Compound 2, 12-methyl-4,5,8,11,12,15,23,27-octaazapentacyclo[21.3.1.1^2,5.1^17,210^10,14]nonacosa-1(27),2(29) 3,10,13,17(28),18,20,25-nonaene-9,16,24-trione] |
| < 100 | 100 to 1000 | Cn1cc2c(n1)C(=O)NCc1cncc(c1)-c1ccc(=O)n(n1)Cc1cccc(c1)C(=O)N2 [Compound 3, 17-methyl-6,14,17,18,21,25,29-heptaazapentacyclo[21.3.1.1^2,61^8,12.0^15,19]nonacosa-1(27),2(29), 3,8,10,12(28),15,18,23,25-decaene-5,13,20-trione] |
| > 5000 | > 5000 | Cn1cc2c(n1)C(=O)NCCOc1ccc(=O)n(n1)Cc1cccc(c1)C(=O)N2 [Compound 4, 12-methyl-19-oxa-1,9,12,13,16,24-hexaazatetracyclo[18.3.1.1^3,7.0^10,14]pentacosa-3,5,7(25),10,13,20(24),21-heptaene-8,15,23-trione] |
| < 100 | 100 to 1000 | O=C1Nc2cn(C3CCOCC3)nc2C(=O)NCCCOc2ccc(=O)n(n2)Cc2cccc1c2 [Compound 6, 12-(oxan-4-yl)-20-oxa-1,9,12,13,16,25-hexaazatetracyclo[19.3.1.1^3,7.0^10,14]hexacosa-3,5,7(26),10,13,21(25),22-heptaene-8,15,24-trione] |
| < 100 | 100 to 1000 | CC(C)(C)n1cc2c(n1)C(=O)NCCCOc1ccc(=O)n(n1)Cc1cccc(c1)C(=O)N2 [Compound 7, 12-tert-butyl-20-oxa-1,9,12,13,16,25-hexaazatetracyclo[19.3.1.1^3,7.0^10,14]hexacosa-3,5,7(26),10,13,21(25),22-heptaene-8,15,24-trione] |
| < 100 | > 5000 | Cn1cc2c(n1)C(=O)NCCCOc1ccc(=O)n(n1)Cc1cccc(n1)C(=O)N2 [Compound 8, 12-methyl-20-oxa-1,9,12,13,16,25,26-heptaazatetracyclo[19.3.1.1^3,70^10,14]hexacosa-3,5,7(26),10,13,21(25),22-heptaene-8,15,24-trione] |
| < 100 | > 5000 | O=C1Nc2cn(C3CCOCC3)nc2C(=O)NCCCOc2ccc(=O)n(n2)Cc2cccc1n2 [Compound 9, 12-(oxan-4-yl)-20-oxa-1,9,12,13,16,25,26-heptaazatetracyclo[19.3.1.1^3,7.0^10,14]hexacosa-3,5,7(26),10,13,21(25),22-heptaene-8,15,24-trione] |
| 1000 to 5000 |  | CC(C)(C)n1cc2c(n1)C(=O)NCCCOc1ccc(=O)n(n1)Cc1cccc(n1)C(=O)N2 [Compound 10, 12-tert-butyl-20-oxa-1,9,12,13,16,25,26-heptaazatetracyclo[19.3.1.1^3,7.0^10,14]hexacosa-3,5,7(26),10,13,21(25),22-heptaene-8,15,24-trione] |
| < 100 | 100 to 1000 | O=C1Nc2cn(C3CCOCC3)nc2C(=O)NCC(O)COc2ccc(=O)n(n2)Cc2cccc1c2 (stereo not drawn) [Compound 11, 18-hydroxy-12-(oxan-4-yl)-20-oxa-1,9,12,13,16,25-hexaazatetracyclo[19.3.1.1^3,7.0^10,14]hexacoa-3,5,7(26),10,13,21(25),22-heptaene-8,15,24-trione] |
| < 100 | 1000 to 5000 | Cn1cc2c(n1)C(=O)NCC(O)COc1ccc(=O)n(n1)Cc1cccc(c1)C(=O)N2 (stereo not drawn) [Compound 12, 18-hydroxy-12-methyl-20-oxa-1,9,12,13,16,25-hexaazatetracyclo[19.3.1.1^3,7.0^10,14]hexacosa-3,5,7(26),10,13,21(25),22-heptaene-8,15,24-trione] |
| < 100 | 100 to 1000 | Cn1cc2c(n1)C(=O)NCc1cc(ccn1)-c1ccc(=O)n(n1)Cc1cccc(c1)C(=O)N2 [Compound 13, 17-methyl-6,14,17,18,21,24,29-heptaazapentacyclo[21.3.1.1^2,6.1^8,12.0^15,19]nonacosa-1(27),2(29),3,8,10,12(28),15,18,23,25-decaene-5,13,20-trione] |
| < 100 | 100 to 1000 | Cn1cc2c(n1)C(=O)NCCc1cccc(c1)-c1ccc(=O)n(n1)Cc1cccc(c1)C(=O)N2 [Compound 14, 17-methyl-6,14,17,18,21,30-hexaazapentacyclo[22.3.1.1^2,6.1^8,12.0^15,19]triaconta-1(28),2(30),3,8,10,12(29),15,18,24,26-decaene-5,13,20-trione] |
| > 5000 | > 5000 | Cc1cc2n(n1)CCc1cccc(c1)-c1ccc(=O)n(n1)Cc1cccc(c1)C(=O)N2 [Compound 15, 17-methyl-6,14,18,19,28-pentaazapentacyclo[20.3.1.1^2,6.1^8,12.0^15,19]octacosa-1(26),2(28),3,8,10,12(27)15,17,22,24-decaene-5,13-dione] |

Reference: patent US9624246B2, “Pyridazinone macrocycles as IRAK inhibitors and uses thereof” (Merck Patent GmbH, priority 2015, dated 2017)
